Patent US8058264B2, “Pharmaceutical compositions comprising CB1 cannabinoid receptor antagonists and potassium channel openers for the treatment of obesity and related conditions” (Abbott Products GmbH, priority 2004, dated 2011)

Target: T1, hamster SUR1 (Cricetus cricetus, UniProt Q09427)
T1 construct: expressed in transfected cells; host or cells: COS-1 cells, transient transfection (pcDNA vector), membrane preparation
Test: Competitive binding to sulfonylurea and KCO sites of SUR1 ([3H]glibenclamide displacement, COS-cell membranes)
Conditions: SUR1 versus SUR2 selectivity, in words
Procedure: Competitive binding experiments were performed to characterize the affinity of the test compounds for the binding sites for sulfonylureas and KATP channel openers (=KCOs) on hamster SUR1. To assess the affinity for the sulfonylurea site membranes from COS-cells transiently expressing hamster SUR1 were incubated in the presence of [^3H]glibenclamide with increasing concentrations of test compounds. […] Per curve 9-15 distinct concentrations were tested covering the relevant range. All measurements were repeated at least 5 times in independent experiments.
[^3H]glibenclamide (specific activity 51 Ci mmol^−1) was obtained from NEN (Dreieich, Germany). If suitable, stock solutions were prepared in dimethylsulfoxide with a final solvent concentration in the media below 1%.
SUR- or Kir6.x isoforms were used either subcloned in the pcDNA (hamster SUR1, mouse Kir6.2) or pCMV vector (rat SUR2A, SUR2B).
For transfection the cells were incubated 4 hours in a Tris-buffered salt solution containing DNA (5-10 μg/ml) plus DEAE-dextran (1 mg/ml), 2 min in HEPES-buffered salt solution plus dimethylsulfoxide (10%) and 4 hours in DMEM-HG plus chloroquine (100 μM). Cells were then returned to DMEM-HG plus 10% FCS. […] For binding experiments resuspended membranes (final protein concentration 5-50 μg/ml) were incubated in “Tris-buffer” (50 mM, pH 7.4) containing either [^3H]glibenclamide (final concentration 0.3 nM or 3 nM and nonspecific binding defined by 100 nM or 1 μM glibenclamide for SUR1 or SUR2Y1205S-isoforms, respectively) or [^3H]P1075 (final concentration 3 nM, nonspecific binding defined by 100 μM pinacidil) and increasing concentrations of the test compounds. […] Incubations were carried out for 1 h at room temperature and were terminated by rapid filtration through Whatman GF/B filters.
The inhibition constant (Ki value) of the test substances was calculated from the respective IC50 value, and was stated as the negative logarithmised value thereof (pKi).

T1 sequence (Q09427 whole entry): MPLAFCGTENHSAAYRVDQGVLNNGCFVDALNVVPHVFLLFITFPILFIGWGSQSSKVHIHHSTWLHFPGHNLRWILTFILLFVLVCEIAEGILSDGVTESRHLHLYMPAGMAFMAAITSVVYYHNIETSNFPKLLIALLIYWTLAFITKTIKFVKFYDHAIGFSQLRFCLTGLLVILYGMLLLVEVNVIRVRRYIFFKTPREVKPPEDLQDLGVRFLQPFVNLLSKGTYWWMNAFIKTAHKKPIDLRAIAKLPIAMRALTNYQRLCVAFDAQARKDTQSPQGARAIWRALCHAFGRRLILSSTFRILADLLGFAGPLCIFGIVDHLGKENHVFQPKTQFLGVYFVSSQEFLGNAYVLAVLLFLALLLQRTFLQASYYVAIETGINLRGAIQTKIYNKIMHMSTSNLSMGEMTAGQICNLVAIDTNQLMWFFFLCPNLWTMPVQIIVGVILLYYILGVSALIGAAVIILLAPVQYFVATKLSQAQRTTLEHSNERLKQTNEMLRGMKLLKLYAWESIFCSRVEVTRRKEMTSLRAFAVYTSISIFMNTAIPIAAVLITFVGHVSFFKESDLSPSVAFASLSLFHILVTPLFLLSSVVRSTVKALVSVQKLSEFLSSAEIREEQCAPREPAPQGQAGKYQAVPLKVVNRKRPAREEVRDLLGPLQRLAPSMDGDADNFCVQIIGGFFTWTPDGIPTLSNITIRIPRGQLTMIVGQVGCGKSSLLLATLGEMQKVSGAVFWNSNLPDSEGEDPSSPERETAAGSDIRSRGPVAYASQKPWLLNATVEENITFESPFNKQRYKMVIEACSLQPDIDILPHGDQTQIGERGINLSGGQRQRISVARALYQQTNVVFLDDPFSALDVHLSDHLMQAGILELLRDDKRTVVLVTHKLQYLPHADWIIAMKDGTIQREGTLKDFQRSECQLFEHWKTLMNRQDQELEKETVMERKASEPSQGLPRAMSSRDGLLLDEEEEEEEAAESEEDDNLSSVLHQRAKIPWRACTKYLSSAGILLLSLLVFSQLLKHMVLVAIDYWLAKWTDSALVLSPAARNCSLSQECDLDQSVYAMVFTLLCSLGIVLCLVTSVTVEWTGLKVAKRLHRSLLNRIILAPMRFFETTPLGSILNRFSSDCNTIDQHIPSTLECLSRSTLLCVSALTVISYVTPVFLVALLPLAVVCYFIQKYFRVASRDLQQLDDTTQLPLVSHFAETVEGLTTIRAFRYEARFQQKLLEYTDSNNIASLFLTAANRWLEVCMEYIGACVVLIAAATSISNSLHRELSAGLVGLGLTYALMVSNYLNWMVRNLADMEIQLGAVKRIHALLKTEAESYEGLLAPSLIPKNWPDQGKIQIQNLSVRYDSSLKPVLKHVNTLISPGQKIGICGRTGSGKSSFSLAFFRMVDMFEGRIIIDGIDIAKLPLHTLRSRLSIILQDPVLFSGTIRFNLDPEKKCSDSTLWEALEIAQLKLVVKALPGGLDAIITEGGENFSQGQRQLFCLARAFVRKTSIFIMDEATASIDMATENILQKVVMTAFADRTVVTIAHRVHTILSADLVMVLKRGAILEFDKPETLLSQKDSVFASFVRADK

For CNC(=NS(=O)(=O)N1CCOCC1)N1CC(c2ccccc2)C(c2ccc(Cl)cc2)=N1 (stereo not drawn) [3-(4-chlorophenyl)-N-methyl-N′-(morpholin-4-ylsulfonyl)-4-phenyl-4,5-dihydro-1H-pyrazole-1-carboximidamide], the “pki (SUR1) compared with pki (SUR2)” value was “pki (SUR1) larger than pki (SUR2)”.

CSc1c(C(=O)NC2CCCCC2)nc(-c2ccc(Cl)cc2Cl)n1-c1ccc(Cl)cc1 [1-(4-chlorophenyl)-N-cyclohexyl-2-(2,4-dichlorophenyl)-5-(methylthio)-1H-imidazole-4-carboxamide] was tested, and the “pki (SUR1) compared with pki (SUR2)” value was “pki (SUR1) larger than pki (SUR2)”.

For O=S(=O)(N=C(NCc1cccnc1)N1CC(c2ccccc2)C(c2ccc(Cl)cc2)=N1)c1ccc(Cl)cc1 (stereo not drawn) [3-(4-chlorophenyl)-N′-[(4-chlorophenyl)sulfonyl]-4-phenyl-N-(pyridin-3-ylmethyl)-4,5-dihydro-1H-pyrazole-1-carboximidamide], the “pki (SUR1) compared with pki (SUR2)” value was “pki (SUR1) larger than pki (SUR2)”.

In the case of CN(C)S(=O)(=O)N=C(NCCF)N1CC(c2ccccc2)C(c2ccc(Cl)cc2)=N1 (stereo not drawn) [3-(4-chlorophenyl)-N′-[(dimethylamino)sulfonyl]-N-(2-fluoro-ethyl)-4-phenyl4,5-dihydro-1H-pyrazole-1-carboximidamide], the “pki (SUR1) compared with pki (SUR2)” value is reported as “pki (SUR1) larger than pki (SUR2)”.

With NC(=NS(=O)(=O)c1ccc(Cl)cc1)N1C[C@H](c2ccccc2)C(c2ccc(Cl)cc2)=N1 [(4S)-3-(4-chlorophenyl)-N′-[(4-chlorophenyl)sulfonyl]-4-phenyl-4,5-dihydro-1H-pyrazole-1-carboximidamide] the “pki (SUR1) compared with pki (SUR2)” value was “pki (SUR1) larger than pki (SUR2)”.

For CCc1c(C(=O)NN2CCCCC2)nc(-c2ccc(Cl)cc2Cl)n1-c1ccc(Br)cc1 [1-(4-bromophenyl)-2-(2,4-dichloro-phenyl)-5-ethyl-N-piperidin-1-yl-1H-imidazole-4-carboxamide], the “pki (SUR1) compared with pki (SUR2)” value was “pki (SUR1) larger than pki (SUR2)”.

With O=C(NN1CCCCC1)c1nn(-c2ccc(Cl)cc2Cl)c2c1CCCc1cc(Cl)ccc1-2 [8-chloro-1-(2,4-dichlorophenyl)-N-piperidin-1-yl-1,4,5,6-tetrahydrobenzo[6,7]cyclohepta[1,2-c]pyrazole-3-carboxamide] the “pki (SUR1) compared with pki (SUR2)” value was “pki (SUR1) larger than pki (SUR2)”.

With CCCCCCC(C)(C)c1ccc([C@@H]2C[C@H](O)CC[C@H]2CCCO)c(O)c1 [5-(1,1-dimethylheptyl)-2-[(1R,2R,5R)-5-hydroxy-2-(3-hydroxypropyl)cyclohexyl]-phenol] the “pki (SUR1) compared with pki (SUR2)” value was “pki (SUR1) larger than pki (SUR2)”.

CCN(CC)C(=O)c1cn(-c2ccc(Cl)cc2)c(-c2ccc(Cl)cc2Cl)n1 [1-(4-chlorophenyl)-2-(2,4-dichlorophenyl)-N,N-diethyl-1H-imidazole-4-carboxamide] was tested, and the “pki (SUR1) compared with pki (SUR2)” value was “pki (SUR1) larger than pki (SUR2)”.

With O=C(NS(=O)(=O)c1ccc(Cl)cc1)c1cc(-c2ccc(Br)cc2)n(-c2ccc(Cl)cc2Cl)n1 [5-(4-bromophenyl)-N-[(4-chlorophenyl)sulfonyl]-1-(2,4-dichlorophenyl)-1H-pyrazole-3-carboxamide] the “pki (SUR1) compared with pki (SUR2)” value was “pki (SUR1) larger than pki (SUR2)”.

NC(=NS(=O)(=O)c1ccc(Cl)cc1)N1CC(c2ccccc2)C(c2ccc(Cl)cc2)=N1 (stereo not drawn) [3-(4-chlorophenyl)-N′-[(4-chlorophenyl)sulfonyl]-4-phenyl-4,5-dihydro-1H-pyrazole-1-carboximidamide] was tested, and the “pki (SUR1) compared with pki (SUR2)” value was “pki (SUR1) larger than pki (SUR2)”.

CCC1CN=C(N2CC(c3ccccc3)C(c3ccc(Cl)cc3)=N2)O1 (stereo not drawn) [2-[3-(4-chlorophenyl)-4-phenyl-4,5-dihydro-1H-pyrazol-1-yl]-5-ethyl-4,5-dihydro-1,3-oxazole] was tested, and the “pki (SUR1) compared with pki (SUR2)” value was “pki (SUR1) larger than pki (SUR2)”.

With CNC(=NS(=O)(=O)c1ccc(Cl)cc1)N1CC(c2cccnc2)C(c2ccc(Cl)cc2)=N1 (stereo not drawn) [3-(4-chlorophenyl)-N′-[(4-chlorophenyl)sulfonyl]-N-methyl-4-pyridin-3-yl-4,5-dihydro-1H-pyrazole-1-carboximidamide] the “pki (SUR1) compared with pki (SUR2)” value was “pki (SUR1) larger than pki (SUR2)”.

N[C@@H](Cc1ccc(Cl)c(Cl)c1)C(=O)N1CC(c2ccccc2)C(c2ccc(Cl)cc2)=N1 (stereo partly drawn) [(2S)-1-[3-(4-chlorophenyl)-4-phenyl-4,5-dihydro-1H-pyrazol-1-yl]-3-(3,4-dichloro-phenyl)-1-oxopropan-2-amine] was tested, and the “pki (SUR1) compared with pki (SUR2)” value was “pki (SUR1) larger than pki (SUR2)”.

CN1CCC(CNC(=NS(=O)(=O)c2ccc(Cl)cc2)N2CC(c3ccccc3)C(c3ccc(Cl)cc3)=N2)C1 (stereo not drawn) [3-(4-chlorophenyl)-N′-[(4-chlorophenyl)sulfonyl]-N-[(1-methylpyrrolidin-3-yl)-methyl]-4-phenyl-4,5-dihydro-1H-pyrazole-1-carboximidamide] was tested, and the “pki (SUR1) compared with pki (SUR2)” value was “pki (SUR1) larger than pki (SUR2)”.

For Cc1c(NC(=O)c2ccccc2)nc(-c2ccc(Cl)cc2Cl)n1-c1ccc(Cl)cc1 [N-[1-(4-chlorophenyl)-2-(2,4-di-chlorophenyl)-5-methyl-1H-imidazol-4-yl]benzamide], the “pki (SUR1) compared with pki (SUR2)” value was “pki (SUR1) larger than pki (SUR2)”.

For CCCCC(C)(O)c1nc(-c2ccc(Cl)cc2Cl)n(-c2ccc(Cl)cc2)c1C (stereo not drawn) [2-[1-(4-chlorophenyl)-2-(2,4-dichlorophenyl)-5-methyl-1H-imidazol-4-yl]hexan-2-ol], the “pki (SUR1) compared with pki (SUR2)” value was “pki (SUR1) larger than pki (SUR2)”.

In the case of CNC(=NS(=O)(=O)N(C)C)N1CC(c2cccc(F)c2)C(c2ccc(Cl)cc2)=N1 (stereo not drawn) [3-(4-chlorophenyl)-N′-[(dimethyl-amino)sulfonyl]-4-(3-fluorophenyl)-N-methyl-4,5-dihydro-1H-pyrazole-1-carboximidamide], the “pki (SUR1) compared with pki (SUR2)” value is reported as “pki (SUR1) larger than pki (SUR2)”.

In the case of O=C1c2ccccc2S(=O)(=O)N1C1CN(C(c2ccc(Cl)cc2)c2ccc(Cl)cc2)C1 [2-{1-[bis(4-chlorophenyl)methyl]azetidin-3-yl}-1,2-benzisothiazol-3(2H)-one 1,1-dioxide], the “pki (SUR1) compared with pki (SUR2)” value is reported as “pki (SUR1) larger than pki (SUR2)”.

CCCCCNC(=O)c1nc(-c2ccc(Cl)cc2Cl)n(-c2ccc(Br)cc2)c1CC [1-(4-bromophenyl)-2-(2,4-dichlorophenyl)-5-ethyl-N-pentyl-1H-imidazole-4-carboxamide] was tested, and the “pki (SUR1) compared with pki (SUR2)” value was “pki (SUR1) larger than pki (SUR2)”.

In the case of CNC(=NS(=O)(=O)N1CCCCC1)C1=NN(c2ccc(Cl)cc2)C(c2ccccc2)C1 (stereo not drawn) [1-(4-chlorophenyl)-N-methyl-5-phenyl-N′-(piperidin-1-yl-sulfonyl)-4,5-dihydro-1H-pyrazole-3-carboximidamide], the “pki (SUR1) compared with pki (SUR2)” value is reported as “pki (SUR1) larger than pki (SUR2)”.

For CCCCCc1nc(-c2ccc(Cl)cc2Cl)n(-c2ccc(Cl)cc2)c1C [1-(4-chlorophenyl)-2-(2,4-dichlorophenyl)-5-methyl-4-pentyl-1H-imidazole], the “pki (SUR1) compared with pki (SUR2)” value was “pki (SUR1) larger than pki (SUR2)”.

In the case of CNC(=NS(=O)(=O)N1CCOCC1)C1=NN(c2ccc(Cl)cc2Cl)C(c2ccccc2)C1 (stereo not drawn) [1-(2,4-dichlorophenyl)-N-methyl-N′-(morpholin-4-ylsulfonyl)-5-phenyl-4,5-dihydro-1H-pyrazole-3-carboximidamide], the “pki (SUR1) compared with pki (SUR2)” value is reported as “pki (SUR1) larger than pki (SUR2)”.

For CS(=O)(=O)C(=C1CN(C(c2ccc(Cl)cc2)c2ccc(Cl)cc2)C1)c1cc(F)cc(F)c1 [1-[bis(4-chlorophenyl)methyl]-3-[(3,5-difluorophenyl)(methylsulfonyl)-methylene]azetidine], the “pki (SUR1) compared with pki (SUR2)” value was “pki (SUR1) larger than pki (SUR2)”.
